# Experimental data as given in paper PMC4770093, “The role of kinetic context in apparent biased agonism at GPCRs” (Nature Communications, 2016).
# “And” between values parts separate entries of the source, which are not always exact repeats. Equal values may be shown once. Read-outs that look alike come from different tables or passages of the source.
# Tests used:
# [1] = target: SNAP-tagged human dopamine D2L (Homo sapiens, UniProt P14416); experiment: Tag-lite PPHT-red competition kinetic binding (HTRF); settings: PPHT-red tracer, Tag-lite; for koff: 100 μM GppNHp, 37 °C; for Kd: read-out: pKd (affinity determined from kinetic parameters) (converted)
# Sequence of SNAP-tagged human dopamine D2L (P14416 whole entry): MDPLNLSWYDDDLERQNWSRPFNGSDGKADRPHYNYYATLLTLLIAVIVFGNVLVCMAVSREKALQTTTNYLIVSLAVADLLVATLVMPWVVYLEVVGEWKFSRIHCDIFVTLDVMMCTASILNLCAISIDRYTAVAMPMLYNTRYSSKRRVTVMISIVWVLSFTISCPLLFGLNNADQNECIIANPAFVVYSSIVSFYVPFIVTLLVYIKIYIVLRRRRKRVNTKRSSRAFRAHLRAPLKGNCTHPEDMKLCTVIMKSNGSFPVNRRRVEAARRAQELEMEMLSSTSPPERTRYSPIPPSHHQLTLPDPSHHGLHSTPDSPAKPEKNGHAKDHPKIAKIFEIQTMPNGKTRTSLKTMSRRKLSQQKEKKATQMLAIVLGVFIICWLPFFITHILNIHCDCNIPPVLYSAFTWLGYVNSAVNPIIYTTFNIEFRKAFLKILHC
# Protocol: To terbium label the SNAP-CHO-D2L cells, cell culture medium was removed from the T175 cm^2 flasks containing confluent adherent SNAP-CHO-D2L cells. Twelve millilitres of Tag-lite labelling medium containing 100 nM of SNAP-Lumi4-Tb was added to the flask and incubated for 1 h at 37 °C under 5% CO2. Cells were then washed 2 × in 15 ml PBS (GIBCO, Invitrogen, Paisley, UK) to remove the excess of SNAP-Lumi4-Tb and detached using 5 ml of enzyme-free Hank's-based cell dissociation buffer (GIBCO, Invitrogen, Paisley, UK) and collected in a vial containing 5 ml of DMEM/Nutrient F-12 Ham, 2 mM glutamine supplemented 10% FCS. Cells were pelleted by centrifugation (5 min at 1,500 r.p.m.) and the pellets were frozen to −80 °C before preparation of membranes.
# All subsequent steps described were conducted at 4 °C, to avoid receptor degradation. Twenty millilitres of wash buffer (10 mM HEPES and 10 mM EDTA pH 7.4) was added to the pellet of terbium-labelled cells (equivalent to 1 × t175 cm^2). […] The supernatant was discarded and the pellet was homogenized and centrifuged as described above in wash buffer. The final pellet was suspended in ice-cold 10 mM HEPES and 0.1 mM EDTA pH 7.4, at a concentration of 5–10 mg m^−1. Protein concentration was determined by the bicinchoninic acid assay using BSA as a standard and aliquots maintained at −80 °C until required. Before their use, the frozen membranes were thawed and the membranes suspended in the assay buffer at a membrane concentration of 0.1 mg m^−1.
# GppNHp was included to remove the G protein-coupled population of receptors that can result in two binding sites in membrane preparations, because the Motulsky–Mahan model is only appropriate for ligands competing at a single site. […] Both fluorescent ligands and unlabelled compounds were diluted in the binding assay buffer.
# Kinetics acquisitions at intervals of 20 s were recorded using the standard settings of the reader for HTRF measurements. […] Specific binding was determined by subtracting the nonspecific HTRF ratio from the total HTRF ratio.
# To accurately determine association rate (kon) and dissociation rate (koff) values, the observed rate of association (kob) was calculated using at least four different concentrations of PPHT-red. The appropriate concentration of PPHT-red was incubated in a 384-well Optiplate with human SNAP-D2LR-CHO cell membranes (2 μg per well) in assay binding buffer at 37 °C (final assay volume, 40 μl). The degree of PPHT-red bound to the receptor was assessed at multiple time points by HTRF detection, to allow construction of association kinetic curves. The resulting data were globally fitted to the association kinetic model (equation (8)) to derive a single best-fit estimate for kon and koff as described under ‘Data analysis'.
# On the same 384-well Optiplate plate, the kinetic parameters of unlabelled ligand were assessed using a competition kinetic binding assay. This approach involves the simultaneous addition of both fluorescent ligand and competitor to receptor preparation so that at t=0 all receptors are unoccupied. […] The degree of PPHT-red bound to the receptor was assessed at multiple time points by HTRF detection. Nonspecific binding was determined as the amount of HTRF signal detected in the presence of spiperone (1 μM) and was subtracted from each time point. Each time point was conducted on the same 384-well plate incubated at 37 °C with shaking (100 r.p.m.) after every cycle.
# Data were globally fitted using equation (7), to simultaneously calculate kon and koff.
# [2] = test system: D2R; experiment: Simulation of receptor occupancy over time from kon and koff; settings: simulation with a KD concentration of each agonist
# Source text: We extended these studies with a Tag-lite receptor binding assay using a D2R construct with an amino-terminal SNAP tag and the fluorescently labelled agonist (±)-4′-amino-2-(N-phenethyl-N-propyl)-amino-5-hydroxytetralin (PPHT). […] The association rate of a ligand is often thought to be diffusion limited. […] Using these kinetic parameters, we performed a simulation to estimate the receptor occupancy of a KD concentration of each agonist over time (Fig. 4e).
# Kinetic binding parameters of kon (a), koff (b) and t1/2 (c) were determined in a competition kinetic binding assay using a Tag-lite binding assay and the fluorescently labelled agonist PPHT as the tracer ligand (Supplementary Table 6). […] All values are expressed as mean±s.e.m. from three experiments. (e) The values of kon and koff obtained in the competition kinetic assay were used to simulate receptor occupancy over time using equation (9) and the concentration of ligand equivalent to its KD (see Supplementary Table 6).
# where Ymax reflects maximum binding of a concentration of ligand and kob is determined by equation (8).
# [3] = target: T1, D2LR (Homo sapiens, UniProt P14416); experiment: ERK1/2 phosphorylation assay (Alphascreen SureFire); assay type: cell-based; parameters: expressed in transfected cells; settings: for Log(τ/KA) pERK1/2 / ΔLog(τ/KA) pERK1/2: 5 minute timepoint; for Log(τ/KA) pERK1/2: Flp-In-CHO-D2LR; for ΔLog(τ/KA) pERK1/2: dopamine as reference agonist; for alpahscreen assay to detect pERK1/2, counts: agonist 10 μM (cariprazine 1 μM), single experiments n=1 to n=4
# T1 sequence (P14416 whole entry): as above
# Protocol: ERK1/2 phosphorylation was measured using the Alphascreen SureFire ERK kit (PerkinElmer, Waltham, USA). Cells were seeded into 96-well plates at a density of 50,000 cells per well. After 5–7 h, cells were washed with PBS and incubated in serum-free DMEM overnight before assaying. Dose–response experiments were performed for each ligand at 37 °C in the presence of 0.1% ascorbic acid. […] The plate was shaken for 5 min at room temperature (RT) before transferring 5 μl of the lysates to a white 384-well Proxiplate (PerkinElmer, Waltham, USA). […] Plates were read using a Fusion-TM plate reader (PerkinElmer, Waltham, USA).
# [4] = target: T1, D2LR; experiment: Gαi1 G protein activation (BRET); assay type: cell-based; parameters: expressed in transfected cells
# Protocol: G protein activation. Flp-In-CHO cells stably expressing the D2LR were seeded at a density of 2,000,000 cells per 10-cm dish and were transfected the following day using polyethylenimine as the transfection reagent. […] Twenty-four hours after transfection, the cells were plated into 96-well CulturPlates (PerkinElmer) and grown overnight. The cells were equilibrated in Hank's balanced salt solution at 37 °C before starting the experiment. The cells were stimulated with the agonists for the indicated timeframes when the BRET readings were captured. Coelenterazine (Promega) was added at a final concentration of 5 μM at least 3 min before measurement. […] Net BRET was determined by subtraction of the vehicle control from the agonist-induced response.
# [5] = target: T1, D2LR; experiment: xCELLigence cellular impedance (CI) assay; assay type: cell-based; parameters: expressed in transfected cells; settings: for Emax CI / Emax: relative to the maximal response of ropinirole
# Protocol: Changes in CI on ligand stimulation were measured using the xCELLigence system (Roche Applied Science). The baseline cell index of each well of a 96-well E-plate was measured in the presence of growth medium before cell seeding. Cells were seeded at a density of 20,000 cells per well and grown for 16–20 h followed by 4 h serum starvation. Cells were treated with the ligands and the cell index values were obtained immediately after ligand stimulation every 15 s for a total time of 90 min. The retrieved cell index values were then normalized by dividing the cell index at the time of ligand addition followed by subtraction of the vehicle control at each time point.
# [6] = 5 minute timepoint, Flp-In-CHO-D2LR
# [7] = 5 minute timepoint, dopamine as reference agonist
compound,measurement,setting,value
"CN1CCN(c2cccc3[nH]c(=O)oc23)CC1 [Pardoprunox, pardoprunox]",pKd (affinity determined from kinetic parameters),[1],7.75
same,koff,[1],0.038 ± 0.00933 s⁻¹
same,time to maximal receptor occupancy,[2],≤ 1 min
same,Log(τ/KA) pERK1/2,[3],9.06 ± 0.08
same,ΔLog(τ/KA) pERK1/2,[3],0.50 ± 0.10
same,"alpahscreen assay to detect pERK1/2, counts",[3]; time 7.5 mins,13.2699 counts and 16.7995 counts and 15.0808 counts and 9.987 counts
same,"alpahscreen assay to detect pERK1/2, counts",[3]; time 10 mins,12.5176 counts and 12.8139 counts and 9.935 counts and 7.3291 counts
same,"alpahscreen assay to detect pERK1/2, counts",[3]; time 20 mins,2.97 counts and 3.103 counts and 2.735 counts and 1.953 counts
same,Log(τ/KA) Gαi1 activation,[4]; [6],8.10 ± 0.13
same,ΔLog(τ/KA) Gαi1 activation,[4]; [7],0.93 ± 0.16
same,pEC50 CI,[5]; 2 min,9.30
same,Emax CI,[5]; 2 min,75 ± 3.6
same,pEC50 CI,[5]; 5 min,9.41
same,Emax CI,[5]; 5 min,76 ± 2.7
same,Log(τ/KA) Cellular impedance,[5]; [6],9.29 ± 0.06
same,ΔLog(τ/KA) Cellular impedance,[5]; [7],0.74 ± 0.07
same,pEC50 CI,[5]; 10 min,9.22
same,Emax CI,[5]; 10 min,70 ± 2.2
same,pEC50 CI,[5]; 15 min,9.20
same,Emax CI,[5]; 15 min,67 ± 2.5
same,pEC50 CI,[5]; 30 min,9.06
same,Emax CI,[5]; 30 min,62 ± 2.9
same,pEC50 CI,[5]; 45 min,9.02
same,Emax CI,[5]; 45 min,59 ± 2.4
same,pEC50 CI,[5]; 60 min,8.95
same,Emax CI,[5]; 60 min,57 ± 2.2
same,pEC50 CI,[5]; 75 min,8.87
same,Emax CI,[5]; 75 min,54 ± 2.1
same,pEC50 CI,[5]; 90 min,8.80
same,Emax CI,[5]; 90 min,52 ± 2.0
"CCCN1CCC[C@@H](c2cccc(O)c2)C1 [S-3PPP, (S)-(-)-3-(3-hydroxyphenyl)-N-propylpiperidine]",time to maximal receptor occupancy,[2],≤ 1 min
same,"alpahscreen assay to detect pERK1/2, counts",[3]; time 7.5 mins,7.838 counts and 8.667 counts and 10.676 counts and 8.644 counts
same,"alpahscreen assay to detect pERK1/2, counts",[3]; time 10 mins,7.633 counts and 9.485 counts and 6.489 counts and 6.6386 counts
same,"alpahscreen assay to detect pERK1/2, counts",[3]; time 15 mins,3.509 counts and 3.085 counts and 2.82 counts and 2.443 counts
same,"alpahscreen assay to detect pERK1/2, counts",[3]; time 20 mins,2.3 counts and 2.162 counts and 3.001 counts and 1.823 counts
same,"alpahscreen assay to detect pERK1/2, counts",[3]; time 30 mins,1.331 counts and 1.287 counts and 2.069 counts and 1.34 counts
same,Log(τ/KA) Gαi1 activation,[4]; [6],6.60 ± 0.12
same,ΔLog(τ/KA) Gαi1 activation,[4]; [7],-0.58 ± 0.15
same,Emax CI,[5]; 2 min,46 ± 3.7
same,Emax CI,[5]; 5 min,46 ± 3.0
same,Log(τ/KA) Cellular impedance,[5]; [6],7.34 ± 0.10
same,ΔLog(τ/KA) Cellular impedance,[5]; [7],-1.22 ± 0.11
same,Emax CI,[5]; 10 min,36 ± 2.5
same,Emax CI,[5]; 15 min,32 ± 2.6
same,Emax CI,[5]; 30 min,26 ± 2.5
same,Emax CI,[5]; 45 min,23 ± 2.5
same,Emax CI,[5]; 60 min,21 ± 2.5
same,Emax CI,[5]; 75 min,19 ± 2.4
same,Emax CI,[5]; 90 min,17 ± 2.3
"CCCN(CCC)CCc1cccc2c1CC(=O)N2 [Ropinirole, ropinirole]",koff,[1]; read-out: koff (converted),0.0433 s⁻¹
same,Kd,[1],1860 nM
same,time to maximal receptor occupancy,[2],≤ 1 min
same,Log(τ/KA) pERK1/2,[3],8.44 ± 0.05
same,ΔLog(τ/KA) pERK1/2,[3],-0.12 ± 0.07
same,"alpahscreen assay to detect pERK1/2, counts",[3]; time 5 mins,22.2889 counts and 25.6765 counts and 28.0112 counts
same,"alpahscreen assay to detect pERK1/2, counts",[3]; time 7.5 mins,28.0112 counts and 22.6774 counts and 25.7734 counts
same,"alpahscreen assay to detect pERK1/2, counts",[3]; time 10 mins,21.5421 counts and 16.2572 counts and 11.748 counts and 11.8417 counts
same,"alpahscreen assay to detect pERK1/2, counts",[3]; time 20 mins,4.739 counts and 4.229 counts and 3.491 counts and 4.291 counts
same,"alpahscreen assay to detect pERK1/2, counts",[3]; time 30 mins,2.723 counts and 2.242 counts and 2.289 counts and 2.713 counts
same,Log(τ/KA) Gαi1 activation,[4],6.75 ± 0.09
same,ΔLog(τ/KA) Gαi1 activation,[4],-0.43 ± 0.13
same,Log(τ/KA) Cellular impedance,[5],8.32 ± 0.05
same,ΔLog(τ/KA) Cellular impedance,[5],-0.23 ± 0.06
same,EC50,[5]; 2 min,4.68 nM
same,Emax,[5]; 2 min,100%
same,EC50,[5]; 5 min,5.13 nM
same,Emax,[5]; 5 min,100%
same,EC50,[5]; 10 min,7.94 nM
same,Emax,[5]; 10 min,100%
same,EC50,[5]; 15 min,10.7 nM
same,Emax,[5]; 15 min,100%
same,EC50,[5]; 30 min,17 nM
same,Emax,[5]; 30 min,100%
same,EC50,[5]; 45 min,19.5 nM
same,Emax,[5]; 45 min,100%
same,EC50,[5]; 60 min,24 nM
same,Emax,[5]; 60 min,100%
same,EC50,[5]; 75 min,28.2 nM
same,Emax,[5]; 75 min,100%
same,EC50,[5]; 90 min,34.7 nM
same,Emax,[5]; 90 min,100%
"O=c1[nH]c2cccc(N3CCN(Cc4cccc(-c5ccccc5)c4)CC3)c2o1 [Bifeprunox, bifeprunox]",koff,[1]; read-out: koff (converted),0.000167 s⁻¹
same,Kd,[1],0.0501 nM
same,time to maximal receptor occupancy,[2],> 90 min
same,Log(τ/KA) pERK1/2,[3],7.32 ± 0.10
same,ΔLog(τ/KA) pERK1/2,[3],-1.24 ± 0.11
same,"alpahscreen assay to detect pERK1/2, counts",[3]; time 10 mins,15.6263 counts and 16.6076 counts and 20.0466 counts and 28.1436 counts
same,"alpahscreen assay to detect pERK1/2, counts",[3]; time 15 mins,10.0482 counts and 8.477 counts and 14.6057 counts and 15.1817 counts
same,Log(τ/KA) Gαi1 activation,[4]; [6],8.60 ± 0.11
same,ΔLog(τ/KA) Gαi1 activation,[4]; [7],1.43 ± 0.14
same,EC50,[5]; 2 min,16.2 nM
same,Emax,[5]; 2 min,61 ± 4%
same,EC50,[5]; 5 min,3.47 nM
same,Emax,[5]; 5 min,67 ± 3%
same,Log(τ/KA) Cellular impedance,[5]; [6],8.30 ± 0.07
same,ΔLog(τ/KA) Cellular impedance,[5]; [7],-0.25 ± 0.08
same,EC50,[5]; 10 min,1.58 nM
same,Emax,[5]; 10 min,57 ± 2.5%
same,EC50,[5]; 15 min,0.912 nM
same,Emax,[5]; 15 min,58 ± 2.8%
same,EC50,[5]; 30 min,0.55 nM
same,Emax,[5]; 30 min,53 ± 3.1%
same,EC50,[5]; 45 min,0.339 nM
same,Emax,[5]; 45 min,51 ± 2.3%
same,EC50,[5]; 60 min,0.263 nM
same,Emax,[5]; 60 min,49%
same,EC50,[5]; 75 min,0.229 nM
same,Emax,[5]; 75 min,46%
same,EC50,[5]; 90 min,0.2 nM
same,Emax,[5]; 90 min,44%
